SMILES strings stand for the structures.

The experiment concerns Normal human epidermal melanocytes (NHEM). The experiment is described as follows: Melanin inhibition rate in UVB-irradiated melanocytes. The format is cell-based. The settings on record: for Melanin inhibition rate (% inhibition against UV): NHEM, UVB 14 mJ/cm^2 every 24 h, 72 hours treatment, active concentration (wt %) as in table, melanin normalized to relative cell viability; for Boost of efficacy of Vitamin K2 (melanin inhibition), in words: combination with Encap MK7 (0.0024%) in NHEM. As for the experimental part:
Effect of actives like 12HSA, 4-HR (4-hexyl resorcinol) and Encap MK7 (encapsulated Vitamin K2 of the MK-7 type) were tested individually and in combination. The protocol for the invitro assay is summarized below:
Normal human epidermal melanocytes (NHEM) (Biocell, Xi'an, China) were grown in melanocyte growth medium (MGM) with human melanocyte growth supplement (both from Promocell, Germany). NHEM cells were seeded at a density of 7×10^4 cells in 2 mL MGM/well in 6-well plates and incubated for 24 hours in an incubator at 37° C. with 5% CO2. When reaching 50% confluency, cells were irradiated with UVB at 14 mJ/cm^2 and after UV irradiation, media was replaced with fresh media containing test materials. Every 24 hours in the following 72 hours, the cells were irradiated with UVB again, and the treatment were refreshed.
At the end of the 72 hours incubation period, cell viability was determined using the Alamar Blue method. Briefly, cells were washed twice with phosphate buffered saline (PBS) solution. Freshly prepared 10% Alamar Blue working solution was added into each well including the blank control wells without cells. Plates were incubated for 1 hour at 37° C. in the CO2 incubator. The Alamar Blue solution was then transferred to a 96-well plate to check fluorescence intensity at Ex/Em 530 nm/590 nm using a fluorescent plate reader.
After cell viability evaluation, cells were further washed with PBS for twice and the cells were detached with 0.25% trypsin and collected with centrifugation. The cell pellet was added with a mixed solution (H2O:EtOH:Et2O=2:5:5 v/v) and the mixture was vortexed and left stand still for 30 min. Then the mixture was centrifuged at 1000 r/min for 10 min. The lower fraction was collected and further extracted with a solution containing 10% (v/v) DMSO and 1 M NaOH and incubated at 80° C. in a water bath for 40 minutes. Melanin standard solution was prepared in similarly by adding the same DMSO/NaOH mixed solution to the commercially sourced melanin and incubated at 80° C. for 40 minutes. The extracted melanin and the serially diluted melanin standard solution was then transferred to a 96-well plate and the absorbance at 405 nm was detected using a plate reader. The melanin content was calculated from the melanin standard curve. The melanin concentrations (μg/mL) were then normalized to the relative cell viability. The melanin inhibition rates were calculated using the following equation.

As to `CCCCCCC(O)CCCCCCCCCCC(=O)O` (stereo not shown) [A, 12-hydroxystearic acid], the “Melanin inhibition rate (% inhibition against UV)” value came out at 25.3% and the “Boost of efficacy of Vitamin K2 (melanin inhibition), in words” value is “able to boost efficacy of Vitamin K2”.
As to `CCCCCCc1ccc(O)cc1O` [C, 4-hexyl resorcinol], the “Melanin inhibition rate (% inhibition against UV)” value came to 38.5% and the “Boost of efficacy of Vitamin K2 (melanin inhibition), in words” value was “does not do so”.

The values above are taken from patent US20240415752A1, “A personal care composition comprising vitamin K2 and hydroxystearic acid” (Conopco, Inc., d/b/a UNILEVER, priority 2021, published 2024).
